Measurements from US20230097700A1, “AZETIDINE SULFONAMIDE COMPOUND” (DAIICHI SANKYO COMPANY, LIMITED, priority 2019, published 2023).
Structures can show the parent of a compound that is named as a salt.

Tested on: activated T cells (CD4+ T cells derived from the mouse spleen)
Assay: Incorporation of 3H-thymidine into activated T cells
Format: cell-based, mouse (C57BL/6J)
Conditions: 3H-thymidine incorporation, mouse spleen CD4+ T cells activated with Dynabeads Mouse T-Activator CD3/CD28
Procedure: Effect of a test substance on incorporation of ^3H-thymidine was evaluated using T cells derived from the mouse spleen. The spleen was excised out from a C57BL/6J mouse euthanized, cut into pieces, ground on a cell strainer (40 μm mesh) and centrifuged to collect spleen cells. CD4+ T cells were isolated from the spleen cells by use of EasySep Mouse CD4+ T cell isolation kit (STEMCELL Technologies). CD4+ T cells were seeded to a 96-well round-bottom plate. Test substance dissolved in DMSO (dimethyl sulfoxide) or vehicle (DMSO) was added to culture medium and Dynabeads Mouse T-Activator CD3/CD28 (Thermo Fisher Scientific Inc.) was added. Culture was carried out at 37° C. in 5% CO2. After culture was carried out for 24 hours, ^3H-thymidine (PerkinElmer) diluted with the culture medium was added to individual wells. Culture was further carried out overnight at 37° C. in 5% CO2. In order to measure ^3H-thymidine incorporated in nuclei of the cells, the cells were collected on a filter plate UniFilter-96 GF/B (PerkinElmer) by use of a FilterMate Universal Harvester (PerkinElmer). After the filter plate was placed in a dryer and allowed to stand still for 2 hours or more, scintillation cocktail MicroScint-O (PerkinElmer) was added and radioactivity was measured by TopCount NXT (PerkinElmer). With the radioactivity of a group not containing a test substance being specified as 100% and the radioactivity of a group not activated being specified as 0%, relative radioactivity values of individual wells to which the test substance was added (proliferation rate, % of vehicle) were calculated. The values of “% of vehicle” were entered in analysis software Prism (Version 4.03, GraphPad Software). “Nonlinear regression Log (inhibitor) vs reaction variable tilt” was selected and sigmoid type-fitting (Bottom=0, Top=100) was carried out to calculate 50% inhibition concentration (IC50). The compound of the present invention suppresses ^3H-thymidine incorporation in activated T cells.

| SMILES | IC50 [nM] |
| --- | --- |
| N[C@@H](Cc1cccc(S(=O)(=O)N2CC(Oc3ccc(-c4ccccc4)cc3)(c3ccccc3)C2)c1)C(=O)O [Example 2, (2S)-2-Amino-3-(3-{3-[([1,1′-biphenyl]-4-yl)oxy]-3-phenylazetidin-1-sulfonyl}phenyl)propanoic acid] | 12 |
| N[C@@H](Cc1cccc(S(=O)(=O)N2CC(Oc3cccc(-c4ccccc4)c3)(c3ccccc3)C2)c1)C(=O)O [Example 3, (2S)-2-Amino-3-(3-{3-[([1,1′-biphenyl]-3-yl)oxy]-3-phenylazetidin-1-sulfonyl)phenyl)propanoic acid] | 35 |
| CC(=O)c1ccc(OC2(c3ccc(F)cc3)CN(S(=O)(=O)c3cccc(C[C@H](N)C(=O)O)c3)C2)cc1F [Example 4, (2S)-3-{3-[3-(4-Acetyl-3-fluorophenoxy)-3-(4-fluorophenyl)azetidine-1-sulfonyl]phenyl}-2-aminopropanoic acid monohydrochloride] | 12 |
| CC(=O)c1cc(OC2(c3ccc(F)cc3)CN(S(=O)(=O)c3cccc(C[C@H](N)C(=O)O)c3)C2)ccc1F [Example 5, (2S)-3-{3-[3-(3-Acetyl-4-fluorophenoxy)-3-(4-fluorophenyl)azetidine-1-sulfonyl]phenyl}-2-aminopropanoic acid monohydrochloride] | 30 |
| N[C@@H](Cc1cccc(S(=O)(=O)N2CC(Oc3ccc4nccnc4c3)(c3ccccc3)C2)c1)C(=O)O [Example 6, (2S)-2-Amino-3-(3-{3-phenyl-3-[(quinoxalin-6-yl)oxy]azetidin-1-sulfonyl}phenyl)propanoic acid monohydrochloride] | 6.6 |
| N[C@@H](Cc1cccc(S(=O)(=O)N2CC(Oc3ccc4c(c3)OCCO4)(c3ccccc3)C2)c1)C(=O)O [Example 7, (2S)-2-Amino-3-(3-{3-[(2,3-dihydro-1,4-benzodioxin-6-yl)oxy]-3-phenylazetidin-1-sulfonyl}phenyl)propanoic acid monohydrochloride] | 16 |
| N[C@@H](Cc1cccc(S(=O)(=O)N2CC(Oc3ccc4c(c3)CCNC4=O)(c3ccc(F)cc3)C2)c1)C(=O)O [Example 8, (2S)-2-Amino-3-(3-{3-(4-fluorophenyl)-3-[(1-oxo-1,2,3,4-tetrahydroisoquinolin-6-yl)oxy]azetidin-1-sulfonyl}phenyl)propanoic acid monohydrochloride] | 13 |
| CC(=O)c1ccc(OC2(c3ccc(Cl)cc3)CN(S(=O)(=O)c3cccc(C[C@H](N)C(=O)O)c3)C2)cc1 [Example 9, (2S)-3-{3-[3-(4-Acetylphenoxy)-3-(4-chlorophenyl)azetidin-1yl]sulfonylphenyl}-2-aminopropanoic acid monohydrochloride] | 7.6 |
| N[C@@H](Cc1cccc(S(=O)(=O)N2CC(Oc3ccc4cn[nH]c4c3)(c3ccccc3)C2)c1)C(=O)O [Example 10, (2S)-2-Amino-3-(3-{3-[(1H-indazol-6-yl)oxy]-3-phenylazetidine-1-sulfonyl}phenyl)propanoic acid monohydrochloride] | 10 |
| CC(C)NC(=O)c1ccc(OC2(c3ccccc3)CN(S(=O)(=O)c3cccc(C[C@H](N)C(=O)O)c3)C2)cc1 [Example 11, (2S)-2-Amino-3-[3-(3-phenyl-3-{4-[(propan-2-yl)carbamoyl]phenoxy}azetidin-1-sulfonyl)phenyl]propanoic acid monoformate] | 26 |
| N[C@@H](Cc1cccc(S(=O)(=O)N2CC(Oc3ccc(OC(F)F)cc3)(c3ccccc3)C2)c1)C(=O)O [Example 12, (2S)-2-Amino-3-(3-{3-[4-(difluoromethoxy)phenoxy]-3-phenylazetidin-1-sulfonyl}phenyl)propanoic acid monoformate] | 21 |
| Cc1ccc(C2(Oc3ccc(C#N)cc3)CN(S(=O)(=O)c3cccc(C[C@H](N)C(=O)O)c3)C2)cc1 [Example 13, (2S)-2-Amino-3-{3-[3-(4-cyanophenoxy)-3-(4-methylphenyl)azetidine-1-sulfonyl]phenyl}propanoic acid monoformate] | 9.1 |
| CC(=O)c1ccc(OC2(c3ccc(C)cc3)CN(S(=O)(=O)c3cccc(C[C@H](N)C(=O)O)c3)C2)cc1 [Example 14, (2S)-3-{3-[3-(4-Acetylphenoxy)-3-(4-methylphenyl)azetidine-1-sulfonyl]phenyl}-2-aminopropanoic acid monoformate] | 7.7 |
| N[C@@H](Cc1cccc(S(=O)(=O)N2CC(Oc3cccc(F)c3)(c3ccc(F)cc3)C2)c1)C(=O)O [Example 15, (2S)-Amino-3-(3-{[3-(3-fluorophenoxy)-3-(4-fluorophenyl)azetidin-1-yl]sulfonyl}phenyl)propanoic acid] | 14 |
| Cc1ccc(OC2(c3ccccc3)CN(S(=O)(=O)c3cccc(C[C@H](N)C(=O)O)c3)C2)cc1 [Example 16, (2S)-Amino-3-(3-{[3-phenyl-3-(p-tolyloxy)azetidin-1-yl]sulfonyl)phenyl)propanoic acid] | 10 |
| N[C@@H](Cc1cccc(S(=O)(=O)N2CC(Oc3ccc(F)c(Cl)c3)(c3ccccc3)C2)c1)C(=O)O [Example 17, (2S)-Amino-3-(3-{[3-(3-chloro-4-fluorophenoxy)-3-phenylazetidin-1-yl]sulfonyl}phenyl)propanoic acid] | 23 |
| N#Cc1ccc(OC2(c3ccccc3)CN(S(=O)(=O)c3cccc(C[C@H](N)C(=O)O)c3)C2)cc1 [Example 18, (2S)-Amino-3-(3-{[3-(4-cyanophenoxy)-3-phenylazetidin-1-yl]sulfonyl}phenyl)propanoic acid] | 14 |
| CCC(=O)c1ccc(OC2(c3ccc(F)cc3)CN(S(=O)(=O)c3cccc(C[C@H](N)C(=O)O)c3)C2)cc1 [Example 19, (2S)-2-Amino-3-{3-[3-(4-fluorophenyl)-3-(4-propanoylphenoxy)azetidin-1-yl]sulfonylphenyl}propanoic acid monotrifluoroacetate] | 30 |
| NC(=O)c1ccc(OC2(c3ccccc3)CN(S(=O)(=O)c3cccc(C[C@H](N)C(=O)O)c3)C2)cc1 [Example 20, (2S)-2-Amino-3-{3-[3-(4-carbamoylphenoxy)-3-phenylazetidine-1-sulfonyl]phenyl}propanoic acid monoformate] | 8.8 |
| CN(C)c1ccc(OC2(c3ccc(F)cc3)CN(S(=O)(=O)c3cccc(C[C@H](N)C(=O)O)c3)C2)cc1 [Example 21, (2S)-2-Amino-3-{3-[4-(dimethylamino)phenoxy]-3-(4-fluorophenyl)azetidin-1-yl]sulfonylphenyl}propanoic acid monohydrochloride] | 3.7 |
| NC(=O)c1ccc(OC2(c3ccc(F)cc3)CN(S(=O)(=O)c3cccc(C[C@H](N)C(=O)O)c3)C2)cc1 [Example 22, (2S)-2-Amino-3-{3-[3-(4-carbamoylphenoxy)-3-(4-fluorophenyl)azetidine-1-sulfonyl]phenyl}propanoic acid monotrifluoroacetate] | 4.8 |
| [2H]c1c([2H])c([2H])c(OC2(c3ccccc3)CN(S(=O)(=O)c3cccc(C[C@H](N)C(=O)O)c3)C2)c([2H])c1[2H] [Example 24, (2S)-2-Amino-3-(3-{3-phenyl-3-[(^2H5)phenyloxy]azetidin-1-sulfonyl}phenyl)propanoic acid] | 12 |
| C[C@H](OC(=O)[C@@H](N)Cc1cccc(S(=O)(=O)N2CC(Oc3cccc(F)c3)(c3ccccc3)C2)c1)C(=O)N(C)C [Example 31, (2S)-1-(Dimethylamino)-1-oxopropan-2-yl (2S)-2-amino-3-{3-[3-(3-fluorophenoxy)-3-phenylazetidin-1-sulfonyl]phenyl}propanoate monotrifluoroacetate] | 21 |
| C[C@@H](OC(=O)[C@@H](N)Cc1cccc(S(=O)(=O)N2CC(Oc3cccc(F)c3)(c3ccccc3)C2)c1)C(=O)N(C)C [Example 32, (2R)-1-(Dimethylamino)-1-oxopropan-2-yl (2S)-2-amino-3-{3-[3-(3-fluorophenoxy)-3-phenylazetidin-1-sulfonyl]phenyl}propanoate monotrifluoroacetate] | 18 |
| N#Cc1ccc(OC2(c3ccc(F)cc3)CN(S(=O)(=O)c3cccc(C[C@H](N)C(=O)O)c3)C2)cc1 [Example 34, (2S)-2-Amino-3-{3-[3-(4-cyanophenoxy)-3-(4-fluorophenyl)azetidine-1-sulfonyl]phenyl}propanoic acid monohydrochloride] | 3.3 |
| N[C@@H](Cc1cccc(S(=O)(=O)N2CC(Oc3ccc(Cl)cc3)(c3ccc(F)cc3)C2)c1)C(=O)O [Example 35, (2S)-2-Amino-3-{3-[3-(4-chlorophenoxy)-3-(4-fluorophenyl)azetidine-1-sulfonyl]phenyl}propanoic acid monohydrochloride] | 24 |
| N[C@@H](Cc1cccc(S(=O)(=O)N2CC(Oc3ccc(Cl)cc3)(c3ccc(F)c(F)c3)C2)c1)C(=O)O [Example 36, (2S)-2-Amino-3-{3-[3-(4-chlorophenoxy)-3-(3,4-difluorophenyl)azetidin-1-sulfonyl]phenyl}propanoic acid monohydrochloride] | 19 |
